Experimental data: patent publication US8859569B2, “Substituted annellated pyrimidines and use thereof” (Bayer Pharma Aktiengesellschaft, priority 2011, dated 2014)

Assays:
aorta rings = experiment: Vessel-relaxing action in vitro (aorta rings, phenylephrine contraction); conditions: Oryctolagus cuniculus, concentration required to reduce phenylephrine-induced contraction of rabbit aorta rings by 50%
Method in brief: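 Rabbit aortic rings 1.5 mm wide were held under preload in carbogen-gassed Krebs-Henseleit at 37 °C and contracted with cumulative phenylephrine. Test substance was added in rising doses on successive passes, each compared with the preceding control contraction. IC50 is the concentration that halves contraction, with 0.1% DMSO in the bath.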

[1] = target: T1, human phosphodiesterase 5 (PDE-5) (Homo sapiens, UniProt O76074); experiment: Inhibition of human phosphodiesterase 5 (PDE-5), SPA assay; type: biochemical; conditions: PDE-5 preparation from human platelets, [8-3H]cGMP substrate
T1 construct: PDE-5 preparations are obtained from human platelets by lysis; from tissue; host or cells: human platelets
Method in brief: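 Scintillation proximity read-out with yttrium beads after 60 min room-temperature hydrolysis of 0.025 μCi [8-3H]cGMP, pH 7.5 Tris/MgCl2/EDTA buffer. Enzyme is a human platelet PDE-5 fraction, diluted to keep substrate turnover below 70%. Test concentrations 4 μM–0.0018 μM final; IC50 from inhibition curves.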

[2] = target: T2, recombinant guanylate cyclase reporter cell line (Rattus norvegicus, UniProt P19686+P20595); experiment: Action on recombinant guanylate cyclase reporter cell line; type: cell-based
T2 construct: expressed in transfected cells
T2 sequence (P20595 1-619): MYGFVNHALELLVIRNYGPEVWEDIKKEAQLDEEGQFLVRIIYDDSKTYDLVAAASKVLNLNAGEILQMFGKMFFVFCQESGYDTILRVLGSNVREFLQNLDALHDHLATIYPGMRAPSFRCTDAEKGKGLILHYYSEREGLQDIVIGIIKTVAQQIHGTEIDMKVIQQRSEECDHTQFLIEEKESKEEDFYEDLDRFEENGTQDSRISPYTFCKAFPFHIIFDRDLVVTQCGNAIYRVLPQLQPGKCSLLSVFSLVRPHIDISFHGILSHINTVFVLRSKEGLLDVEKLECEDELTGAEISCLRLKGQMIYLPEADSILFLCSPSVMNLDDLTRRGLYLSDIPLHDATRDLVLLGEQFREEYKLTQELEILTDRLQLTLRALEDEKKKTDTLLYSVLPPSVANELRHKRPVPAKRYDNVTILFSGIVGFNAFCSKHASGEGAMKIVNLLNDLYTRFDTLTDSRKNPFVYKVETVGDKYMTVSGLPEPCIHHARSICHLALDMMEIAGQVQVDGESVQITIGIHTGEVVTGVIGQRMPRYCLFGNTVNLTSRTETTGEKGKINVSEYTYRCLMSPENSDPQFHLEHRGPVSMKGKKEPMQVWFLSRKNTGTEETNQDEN
T2 sequence (P19686 1-690): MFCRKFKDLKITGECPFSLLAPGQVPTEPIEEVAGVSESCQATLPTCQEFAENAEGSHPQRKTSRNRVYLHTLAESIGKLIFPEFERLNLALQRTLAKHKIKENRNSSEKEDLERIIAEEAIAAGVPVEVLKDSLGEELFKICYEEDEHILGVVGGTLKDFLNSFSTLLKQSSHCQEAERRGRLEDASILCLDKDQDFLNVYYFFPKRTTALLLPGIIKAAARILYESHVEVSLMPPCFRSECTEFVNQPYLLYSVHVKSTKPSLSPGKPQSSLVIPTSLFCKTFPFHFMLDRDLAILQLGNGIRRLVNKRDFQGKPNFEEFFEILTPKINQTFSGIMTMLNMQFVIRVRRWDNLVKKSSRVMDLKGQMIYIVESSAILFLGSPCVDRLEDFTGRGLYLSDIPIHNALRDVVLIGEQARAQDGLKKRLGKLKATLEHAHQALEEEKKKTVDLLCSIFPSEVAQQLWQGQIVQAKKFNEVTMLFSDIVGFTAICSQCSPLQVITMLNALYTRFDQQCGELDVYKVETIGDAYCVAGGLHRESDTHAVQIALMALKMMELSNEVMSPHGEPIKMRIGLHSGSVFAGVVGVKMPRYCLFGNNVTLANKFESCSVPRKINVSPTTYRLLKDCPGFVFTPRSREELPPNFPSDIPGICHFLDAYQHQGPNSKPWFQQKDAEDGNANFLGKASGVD
Method: B-2. Action on Recombinant Guanylate Cyclase Reporter Cell Line
The cellular action of the compounds according to the invention is determined on a recombinant guanylate cyclase reporter cell line, as described in F. Wunder et al., Anal. Biochem. 339, 104-112 (2005).

Structure (SMILES)	IC50 (aorta rings) [nM]	IC50 [1] [nM]	MEC (minimal effective concentration) [2] [μm]
CC1(C)C(=O)Nc2nc(-c3nn(Cc4ccccc4F)c4ncccc34)nc(-n3ccc(C(F)(F)F)n3)c21 [Example 30, 2-[1-(2-Fluorobenzyl)-1H-pyrazolo[3,4-b]pyridin-3-yl]-5,5-dimethyl-4-[3-(trifluoromethyl)-1H-pyrazol-1-yl]-5,7-dihydro-6H-pyrrolo[2,3-d]pyrimidin-6-one]	> 10000	> 4000	1.0
CC1(C)C(=O)Nc2nc(-n3nc(Cc4ccccc4F)c4cc(F)ccc43)nc(O)c21 [Example 31, 2-[5-Fluoro-3-(2-fluorobenzyl)-1H-indazol-1-yl]-4-hydroxy-5,5-dimethyl-5,7-dihydro-6H-pyrrolo[2,3-d]pyrimidin-6-one]	142	500	0.01
CC1(C)C(=O)Nc2nc(-c3nn(Cc4ccccc4F)c4ncccc34)nc(N3CCOC(C(F)(F)F)C3)c21 (stereo not drawn) [Example 32, 2-[1-(2-Fluorobenzyl)-1H-pyrazolo[3,4-b]pyridin-3-yl]-5,5-dimethyl-4-[2-(trifluoromethyl)morpholin-4-yl]-5,7-dihydro-6H-pyrrolo[2,3-d]pyrimidin-6-one]	9160	720	1.0
CC1(C)C(=O)Nc2nc(-c3nn(Cc4ccccc4F)c4ncccc34)nc(N3CCC(C(F)(F)F)C3)c21 (stereo not drawn) [Example 33, 2-[1-(2-Fluorobenzyl)-1H-pyrazolo[3,4-b]pyridin-3-yl]-5,5-dimethyl-4-[3-(trifluoromethyl)pyrrolidin-1-yl]-5,7-dihydro-6H-pyrrolo[2,3-d]pyrimidin-6-one]	696	570	0.3
CC1(C)C(=O)Nc2nc(-n3nc(Cc4ccccc4F)c4cc(F)ccc43)nc(OCCC(F)(F)F)c21 [Example 34, 2-[5-Fluoro-3-(2-fluorobenzyl)-1H-indazol-1-yl]-5,5-dimethyl-4-(3,3,3-trifluoropropoxy)-5,7-dihydro-6H-pyrrolo[2,3-d]pyrimidin-6-one]	6150	550	1.0
CC1(C)C(=O)Nc2nc(-n3nc(Cc4ccccc4F)c4ccccc43)nc(NCCC(F)(F)F)c21 [Example 35, 2-[3-(2-Fluorobenzyl)-1H-indazol-1-yl]-5,5-dimethyl-4-[(3,3,3-trifluoropropyl)amino]-5,7-dihydro-6H-pyrrolo[2,3-d]pyrimidin-6-one]	> 10000	110	0.3
CC1(C)C(=O)Nc2nc(-n3nc(Cc4ccccc4F)c4ccccc43)nc(NCC3CC3)c21 [Example 36]	5490	89	0.3
CC1(C)C(=O)Nc2nc(-n3nc(Cc4ccccc4F)c4cc(F)ccc43)nc(NCCC(F)(F)F)c21 [Example 37]	3870	100	0.3
CC1(C)C(=O)Nc2nc(-n3nc(Cc4ccccc4F)c4cc(F)ccc43)nc(NCC3CC3)c21 [Example 38]	10000	41	0.3
CC1(C)C(=O)Nc2nc(-c3nc(Cc4ccccc4F)c4ncccn34)nc(NCCC(F)(F)F)c21 [Example 39, 2-[8-(2-Fluorobenzyl)imidazo[1,5-a]pyrimidin-6-yl]-5,5-dimethyl-4-[(3,3,3-trifluoropropyl)amino]-5,7-dihydro-6H-pyrrolo[2,3-d]pyrimidin-6-one]	618	88	0.1
C[C@@H](Nc1nc(-c2nn(Cc3ccccc3F)c3ncc(F)cc23)nc2c1C(C)(C)C(=O)N2)C1CC1 [Example 88, 4-{[(1R)-1-Cyclopropylethyl]amino}-2-[5-fluoro-1-(2-fluorobenzyl)-1H-pyrazolo[3,4-b]pyridin-3-yl]-5,5-dimethyl-5,7-dihydro-6H-pyrrolo[2,3-d]pyrimidin-6-one]	1670	150	0.1
C[C@H](Nc1nc(-c2nn(Cc3ccccc3F)c3ncc(F)cc23)nc2c1C(C)(C)C(=O)N2)C1CC1 [Example 89, 4-{[(1S)-1-Cyclopropylethyl]amino}-2-[5-fluoro-1-(2-fluorobenzyl)-1H-pyrazolo[3,4-b]pyridin-3-yl]-5,5-dimethyl-5,7-dihydro-6H-pyrrolo[2,3-d]pyrimidin-6-one]	3880	82	0.03
Cc1nc2c(cc1F)c(-c1nc(NCCC(F)(F)F)c3c(n1)NC(=O)C3(C)C)nn2Cc1ccccc1F [Example 90, 2-[5-Fluoro-1-(2-fluorobenzyl)-6-methyl-1H-pyrazolo[3,4-b]pyridin-3-yl]-5,5-dimethyl-4-[(3,3,3-trifluoropropyl)amino]-5,7-dihydro-6H-pyrrolo[2,3-d]pyrimidin-6-one]	3070	230	0.3
CC1(C)C(=O)Nc2nc(-c3nn(Cc4ccccc4F)c4ncccc34)nc(N3CC(C(F)(F)F)CCC3=O)c21 (stereo not drawn) [Example 91, 2-[1-(2-Fluorobenzyl)-1H-pyrazolo[3,4-b]pyridin-3-yl]-5,5-dimethyl-4-[2-oxo-5-(trifluoromethyl)piperidin-1-yl]-5,7-dihydro-6H-pyrrolo[2,3-d]pyrimidin-6-one]	517	600	0.03
CC1C(=O)NCCN1c1nc(-c2nn(Cc3ccccc3F)c3ncccc23)nc2c1C(C)(C)C(=O)N2 (stereo not drawn) [Example 92, 2-[1-(2-Fluorobenzyl)-1H-pyrazolo[3,4-b]pyridin-3-yl]-5,5-dimethyl-4-(2-methyl-3-oxopiperazin-1-yl)-5,7-dihydro-6H-pyrrolo[2,3-d]pyrimidin-6-one]	520	170	0.3
CC1(C)C(=O)Nc2nc(-c3nn(Cc4ccccc4F)c4ncccc34)nc(N3CCS(=O)(=O)CC3)c21 [Example 93, 4-(1,1-Dioxidothiomorpholin-4-yl)-2-[1-(2-fluorobenzyl)-1H-pyrazolo[3,4-b]pyridin-3-yl]-5,5-dimethyl-5,7-dihydro-6H-pyrrolo[2,3-d]pyrimidin-6-one]	984	120	0.3
CC(=O)NC1CCN(c2nc(-c3nn(Cc4ccccc4F)c4ncccc34)nc3c2C(C)(C)C(=O)N3)C1 (stereo not drawn) [Example 94, N-(1-{2-[1-(2-Fluorobenzyl)-1H-pyrazolo[3,4-b]pyridin-3-yl]-5,5-dimethyl-6-oxo-6,7-dihydro-5H-pyrrolo[2,3-d]pyrimidin-4-yl}pyrrolidin-3-yl)acetamide]	277	140	0.1
CC1(C)C(=O)Nc2nc(-c3nn(Cc4ccccc4F)c4ncccc34)nc(N[C@H]3CC[C@H](O)CC3)c21 [Example 95, 2-[1-(2-Fluorobenzyl)-1H-pyrazolo[3,4-b]pyridin-3-yl]-4-[(trans-4-hydroxycyclohexyl)amino]-5,5-dimethyl-5,7-dihydro-6H-pyrrolo[2,3-d]pyrimidin-6-one]	228	4	0.1
